Values quoted from earlier work, collected in patent US10028930B2, “Compositions capable of enhancing thermogenesis and uses thereof” (Specialty Nutrition Group, Inc., priority 2013, dated 2018).

Tests used:
[1] = tested on: uncoupling proteins (UCP-1, UCP-2, UCP-3); conditions: rodents, brown and white adipose tissue
[2] = NAFLD subjects, compared to placebo

Fucoxanthin
expression of uncoupling proteins (UCP-1, UCP-2, UCP-3) [1]: inducing the expression
resting energy expenditure (REE) [2]: significantly increased
